According to patent US12715858B2, “Pyridazinone compounds” (INVENTISBIO CO., LTD., priority 2020, dated 2026):
Like-named read-outs stand apart in the source and are kept apart here.

Tests used:
Format in all cases: physicochemical
[1] = Interconversion study of potassium salt Form 1 and Form 2 (slurry of equal amounts); conditions: for XRPD result: 20 V, stirred overnight
Procedure: Interconversion study were performed in MeOH/EA (1/9, RT or 50° C.) and acetone/water (20/1, RT or 50° C.). Equal amounts of Form 1 and Form 2 were slurried in specified solvents at different temperatures for certain time.

[2] = Solubility in water and bio-relevant media at 37° C. (HPLC of filtrate, pH of filtrate, XRPD of filter cake); conditions: for solubility at 0.5 h / solubility at 2 h / solubility at 24 h: 37 °C, thermodynamic from solid; for solubility at 0.5 h / Solubility (mg/mL) 2 h / Solubility (mg/mL) 24 h / Solubility (mg/mL) 0.5 h / solubility at 2 h / solubility at 24 h: 37° C.; for solubility at 0.5 h: read-out: Solubility (mg/mL) 0.5 h; for XRPD: filter cake obtained at 2 or 24 hours; for PH 0.5 h / PH 2 h / PH 24 h: pH of the filtrate; for solubility at 2 h: read-out: Solubility (mg/mL) 2 h; for solubility at 24 h: read-out: Solubility (mg/mL) 24 h
Procedure: Solubility of Form I of free acid, Form 1 and Form 2 of potassium salt, and Form A of sodium salt were tested in water and in bio-relevant media of Simulated Intestinal Fluid (SIF), Simulated Gastric Fluid (SGF), Fasted State Simulated Intestinal Fluid (FaSSIF), and Fed State Simulated Intestinal Fluid (FeSSIF) at 37° C. up to 24 hours. About 12 mg of the sample was weighed into sample vials and then 1.5 mL of each media was added to make suspensions respectively. All suspensions were shaken at 37° C. with 200 rpm.

[3] = Solid state stability at 60° C. and 40° C./75% RH for 7 days (HPLC purity, XRPD); conditions: for chemical and physical stability: 40° C./75% RH and 60° C. for 7 days; for Purity at Day 7 (Area %) 40° C./75% RH: 7 days at 40° C./75% RH; for Purity at Day 7 (Area %) 40° C./75% RH / Purity at Day 7 (Area %) 60° C.: HPLC; for Purity at Day 7 (Area %) 60° C.: 7 days at 60° C.; for XRPD 40° C./75% RH: crystal form after 7 days at 40° C./75% RH; for XRPD 60° C.: crystal form after 7 days at 60° C.; for Initial Purity (Area %): day 0, HPLC
Procedure: HPLC analysis was performed with an Agilent HPLC 1260 series instrument.
Appropriate amount of free acid Form I, potassium salts Form 1 and Form 2, and sodium salt Form A were placed at 60° C. and 40° C./75% RH for 7 days. At 0 and 7 days, the samples were dissolved in diluent to prepare a solution of 0.5 mg/mL for HPLC purity analysis. Solid samples were analyzed by XRPD to check the crystal form.

[4] = Dynamic Vapor Sorption (DVS); conditions: for hygroscopicity: DVS; for water uptake / weight gain by DVS: at 80% RH (Form I: 0 to 80% RH), 25° C.
Procedure: Dynamic Vapor Sorption (DVS): Moisture sorption/desorption data was collected on a IGASorp DVS. The sample was placed into a tarred sample chamber and weighed automatically. The sample was dried at 50° C. until the % RH was less than 0.3% and cooled to 25° C. Set the instrument parameters as below.

[5] = FaSSIF (Fasted State Simulated Intestinal Fluid), fassif, FaSSIF, LOQ is 0.5 μg/mL
[6] = FeSSIF (Fed State Simulated Intestinal Fluid), fessif, FeSSIF
[7] = water, water, Water, LOQ is 0.5 μg/mL

Compound: Cc1nn(-c2cc(Cl)c(Oc3cc(C(C)C)c(=O)[nH]n3)c(Cl)c2)c(=O)[n-]c1=O.[K+] [Potassium Salts Form 1 and 2]
- XRPD result ([1]; 50° C., Acetone/Water (19/1)): Form 2
- XRPD result ([1]; 50° C., MeOH/EtOAc (1/9)): Form 1
- XRPD result ([1]; RT, Acetone/Water (19/1)): Form 2
- XRPD result ([1]; RT, MeOH/EtOAc (1/9)): Form 1

Compound: Cc1nn(-c2cc(Cl)c(Oc3cc(C(C)C)c(=O)[nH]n3)c(Cl)c2)c(=O)[n-]c1=O.[K+] [Potassium salt Form 2]
- solubility at 0.5 h [2, 5]: 0.0011 mg/mL
- Solubility (mg/mL) 2 h ([2]; FaSSIF, LOQ is 0.5 μg/mL): 0.015 mg/mL
- Solubility (mg/mL) 24 h ([2]; FaSSIF): 0.0070 mg/mL
- Solubility (mg/mL) 0.5 h ([2]; FeSSIF): 0.0041 mg/mL
- Solubility (mg/mL) 2 h ([2]; FeSSIF): 0.013 mg/mL
- Solubility (mg/mL) 24 h ([2]; FeSSIF): 0.022 mg/mL
- Solubility (mg/mL) 0.5 h ([2]; SGF, LOQ is 0.5 μg/mL): <LOQ
- Solubility (mg/mL) 2 h ([2]; SGF, LOQ is 0.5 μg/mL): <LOQ
- Solubility (mg/mL) 24 h ([2]; SGF, LOQ is 0.5 μg/mL): <LOQ
- Solubility (mg/mL) 0.5 h ([2]; SIF, LOQ is 0.5 μg/mL): <LOQ
- Solubility (mg/mL) 2 h ([2]; SIF, LOQ is 0.5 μg/mL): <LOQ
- Solubility (mg/mL) 24 h ([2]; SIF, LOQ is 0.5 μg/mL): <LOQ
- Solubility (mg/mL) 0.5 h ([2]; Water, LOQ is 0.5 μg/mL): 4.63 mg/mL
- Solubility (mg/mL) 2 h ([2]; Water, LOQ is 0.5 μg/mL): 6.69 mg/mL
- Solubility (mg/mL) 24 h ([2]; Water, LOQ is 0.5 μg/mL): 6.71 mg/mL
- XRPD ([2]; FaSSIF): Free acid
- XRPD ([2]; FeSSIF): Free acid
- XRPD ([2]; SGF): Free acid
- XRPD ([2]; SIF): Free acid
- XRPD ([2]; Water): Free acid
- PH 0.5 h ([2]; FaSSIF): 7.04
- PH 2 h ([2]; FaSSIF): 7.49
- PH 24 h ([2]; FaSSIF): 7.90
- PH 0.5 h ([2]; FeSSIF): 5.09
- PH 2 h ([2]; FeSSIF): 5.24
- PH 24 h ([2]; FeSSIF): 5.17
- PH 0.5 h ([2]; SGF): 1.35
- PH 2 h ([2]; SGF): 1.25
- PH 24 h ([2]; SGF): 1.25
- PH 0.5 h ([2]; SIF): 7.43
- PH 2 h ([2]; SIF): 7.51
- PH 24 h ([2]; SIF): 7.46
- PH 0.5 h ([2]; Water): 10.49
- PH 2 h ([2]; Water): 10.62
- PH 24 h ([2]; Water): 10.42
- relative stability of Form 1 and Form 2 ([1]; slurry in MeOH/EA and acetone/water, RT or 50° C.): more stable in aqueous solution
- chemical and physical stability [3]: chemically and physically stable
- Purity at Day 7 (Area %) 40° C./75% RH [3]: 98.97 Area %
- Purity at Day 7 (Area %) 60° C. [3]: 99.07 Area %
- XRPD 40° C./75% RH [3]: Unchanged
- XRPD 60° C. [3]: Unchanged
- Initial Purity (Area %) [3]: 99.04 Area %
- DVS Water % at 80% RH ([4]; 80% RH, forms of potassium salt of Compound 1): 1.6%
- hygroscopicity [4]: slight hygroscopic
- crystal form of solid after the DVS study ([4]; XRPD after DVS): remained unchanged
- water uptake / weight gain by DVS [4]: 1.6%

Compound: Cc1nn(-c2cc(Cl)c(Oc3cc(C(C)C)c(=O)[nH]n3)c(Cl)c2)c(=O)[n-]c1=O.[Na+] [Sodium salt Form A]
- solubility at 0.5 h [2, 5]: 0.0013 mg/mL
- solubility at 2 h [2, 5]: 0.015 mg/mL
- solubility at 24 h ([2]; FaSSIF (Fasted State Simulated Intestinal Fluid), fassif, FaSSIF): 0.013 mg/mL
- solubility at 0.5 h [2, 6]: 0.0011 mg/mL
- solubility at 2 h [2, 6]: 0.0029 mg/mL
- solubility at 24 h [2, 6]: 0.012 mg/mL
- Solubility (mg/mL) 0.5 h ([2]; SGF, LOQ is 0.5 μg/mL): <LOQ
- Solubility (mg/mL) 2 h ([2]; SGF, LOQ is 0.5 μg/mL): <LOQ
- Solubility (mg/mL) 24 h ([2]; SGF, LOQ is 0.5 μg/mL): <LOQ
- Solubility (mg/mL) 0.5 h ([2]; SIF, LOQ is 0.5 μg/mL): <LOQ
- Solubility (mg/mL) 2 h ([2]; SIF, LOQ is 0.5 μg/mL): <LOQ
- Solubility (mg/mL) 24 h ([2]; SIF, LOQ is 0.5 μg/mL): <LOQ
- XRPD ([2]; FaSSIF): Free acid
- XRPD ([2]; FeSSIF): Free acid
- XRPD ([2]; SGF): Free acid
- XRPD ([2]; SIF): Free acid
- XRPD ([2]; Water): Free acid +
- PH 0.5 h ([2]; FaSSIF): 7.07
- PH 2 h ([2]; FaSSIF): 7.33
- PH 24 h ([2]; FaSSIF): 8.27
- PH 0.5 h ([2]; FeSSIF): 5.09
- PH 2 h ([2]; FeSSIF): 5.18
- PH 24 h ([2]; FeSSIF): 5.26
- PH 0.5 h ([2]; SGF): 1.24
- PH 2 h ([2]; SGF): 1.24
- PH 24 h ([2]; SGF): 1.24
- PH 0.5 h ([2]; SIF): 7.23
- PH 2 h ([2]; SIF): 7.60
- PH 24 h ([2]; SIF): 7.65
- PH 0.5 h ([2]; Water): 10.76
- PH 2 h ([2]; Water): 10.81
- PH 24 h ([2]; Water): 10.63
- solubility at 0.5 h [2, 7]: 2.8 mg/mL
- solubility at 2 h [2, 7]: 3.51 mg/mL
- solubility at 24 h [2, 7]: 4.57 mg/mL
- chemical and physical stability [3]: chemically and physically stable
- Purity at Day 7 (Area %) 40° C./75% RH [3]: 98.02 Area %
- Purity at Day 7 (Area %) 60° C. [3]: 98.01 Area %
- XRPD 40° C./75% RH [3]: Unchanged
- XRPD 60° C. [3]: Unchanged
- Initial Purity (Area %) [3]: 97.98 Area %
- hygroscopicity [4]: slightly hygroscopic
- water uptake / weight gain by DVS [4]: about 1.6%
